Data on 120 compounds can be found in a melting point compilation (Tetko et al.).

With `O=C1CCc2c1ccc(Cl)c2Cl`, the melting point was in the range of 82 to 84 °C. `CS(=O)(=O)c1ccsc1C(=O)O` registered a melting point of 179 to 181 °C. Regarding `O=S(=O)(CCO)c1ccc(Br)cc1`, the melting point fell in the range of 63 to 65 °C.

`NC(=S)CCN1C(=O)c2ccccc2C1=O`: the melting point is 186 to 188 °C. With `O=C(O)C1=NN(c2nc3ccccc3[nH]2)C(=O)CC1` the figure was 328 to 330 °C. As for `Cc1c(C(=O)O)oc2c(Cl)cccc12`, the melting point lay in the range of 229 to 231 °C. `NC(=O)c1cc(-c2ccccc2)sc1NC(=O)CCl` showed a melting point of 208 to 210 °C. The compound `COC(=O)c1ccc2nnn(O)c2c1` returned a melting point of 166 to 168 °C. Compound `Cn1cc(-c2nnc(N)o2)cn1` displayed a melting point of 253 to 255 °C.

`COc1ccc(N)cc1S(=O)(=O)N1CCOCC1` showed a melting point of 131 to 133 °C. With `NCC1(O)CCC1` the figure was 64 to 66 °C. With `CCOc1ccc(S(=O)(=O)N(CC)CC)cc1N` the figure was 119 to 121 °C; with `CCS(=O)(=O)c1ccc2oc(N)nc2c1`, 209 to 211 °C.

`COc1ccc(C(O)c2ccc(OC)cc2C)cc1` (stereo not given) displayed a melting point of 71 to 73 °C. Then `CC(C)N(C)S(=O)(=O)c1ccc(N)cc1`, with 119 to 121 °C; and `CC1(C)CC(=O)NC1=O`, with 103 to 105 °C; and `CSc1ccc(N)cc1Cl`, with 74 to 76 °C.

On to `O=C(O)c1cc(S(=O)(=O)NCc2ccco2)c(Cl)cc1Cl`, for which the melting point is 149 to 151 °C. Compound `CC(C)Cn1c(S)nnc1N1CCOCC1` had a melting point of under 17 °C. With `Cc1cccn2cc(COc3ccc(F)cc3Cl)nc12`, the melting point was 128 to 130 °C. Then `Cc1cc(C)cc(OCCN(C)C(=O)CCl)c1`, with 70 to 72 °C. Take `O=S(=O)(c1ccccc1)n1c(I)cc2cccnc21`: the melting point is 109 to 111 °C. Compound `Nc1ccc(Cl)c(C(=O)NC2CCCCC2)c1` registered a melting point of 159 to 161 °C. With `Cn1c(-c2ccccc2)c(Br)c2ccccc21` the figure was 59 to 61 °C; with `NC(=O)C1CCCN(c2ccc(N)cn2)C1` (stereo not given), 168 to 170 °C; with `CC(C)NS(=O)(=O)C1CCNC1` (stereo not given), 104 to 106 °C.

For the compound `Cc1csc(N2CCCC(C(=O)O)C2)n1` (stereo not given), the melting point fell in the range of 147 to 149 °C.

Regarding `O=C(O)c1oc2ccccc2c1COc1ccccc1`, the melting point was 163 to 165 °C. `COC(=O)N1CCCNC(=O)C1` yielded a melting point of 134 to 136 °C. As for `Nc1ccc(Br)c2ccccc12`, the melting point lay in the range of 102 to 104 °C. `CCCNc1cc(F)ccc1[N+](=O)[O-]` gave a melting point of 61 to 63 °C. With `CCOC(=O)c1ccc2c(c1)NC(=O)C(C)N2` (stereo not given) the figure was 181 to 183 °C. Take `O=C1CNC(=O)N1CCCl`: the melting point was 114 to 116 °C. `COC(=O)c1ccc(S(N)(=O)=O)cc1Cl` yielded a melting point of 124 to 126 °C. As to `Cc1ccc(OCCCC(=O)O)cc1`, the melting point was in the range of 83 to 85 °C. Consider `O=S(=O)(Cl)c1cnc(Cl)cc1Cl`, for which the melting point lay in the range of 79 to 81 °C.

In turn, `Cc1ccc(S(=O)(=O)c2ccc(NN)cc2)cc1` had a melting point of 173 to 175 °C.

Turning to `Cc1cc(N2CCNC(=O)C2)ccc1CN`, the melting point lay in the range of 154 to 156 °C. Regarding `CS(=O)(=O)N1CCc2ccccc2C1CC(=O)O` (stereo not given), the melting point is 126 to 128 °C. Regarding `O=C(NCCO)c1cccc(S(=O)(=O)N2CCCCC2)c1`, the melting point was 65 to 68 °C.

`CCOC(=O)c1sc2[nH]cnc(=O)c2c1C` displayed a melting point of 233 to 235 °C. In the case of `Sc1nnc(SCc2ccccc2Cl)[nH]1`, the melting point was in the range of 132 to 135 °C. `CC(NC(=O)CNC(=O)CCl)c1ccc(F)cc1` (stereo not given) registered a melting point of 137 to 139 °C. Regarding `O=C(O)c1c(C(F)(F)F)noc1C(F)(F)F`, the melting point lay in the range of 169 to 171 °C.

The compound `Cc1sc2ncnc(SCCC(=O)O)c2c1C` came in with a melting point of 187 to 189 °C. `CC(C)(C)OC(=O)NC1CCN(C2CCNC2)CC1` (stereo not given) gave a melting point of 108 to 110 °C. For `O=C(OCc1ccccc1)N1CCc2n[nH]c(=O)cc2C1`, the melting point lay in the range of 175 to 177 °C.

For the compound `O=C(NCCc1ccc(F)cc1)C1Cc2ccccc2CN1` (stereo not given), the melting point lay in the range of 102 to 104 °C. `O=Cc1cc(Br)c2c(c1)OCCCO2` showed a melting point of 73 to 75 °C.

`Cc1ccc(S(=O)(=O)NC(C(=O)O)C(C)O)cc1` (stereo not given): the melting point is 177 to 179 °C. Take `O=C(O)CC(Br)C(=O)c1ccc(F)cc1` (stereo not given): the melting point lay in the range of 128 to 131 °C.

Turning to `O=C(O)c1cnc2ccccn2c1=O`, the melting point lay in the range of 251 to 253 °C. Take `COc1ccc(CCC(=O)O)cc1F`: the melting point lay in the range of 111 to 113 °C.

Turning to `O=C(O)CCC1NC(=O)N(c2ccc(Cl)c(Cl)c2)C1=O` (stereo not given), the melting point was in the range of 173 to 175 °C.

With `CCc1nc2sccc2c(=O)[nH]1`, the melting point was in the range of 199 to 201 °C. `Cc1ccc(S(=O)(=O)N2CCCC2)cc1C(=O)O` came in with a melting point of 178 to 180 °C. With `O=C(O)c1ccc(Oc2ccc(Cl)cc2Cl)cc1` the figure was 168 to 170 °C. In turn, `CCC(CC)n1ncc(C(=O)O)c1C` returned a melting point of 154 to 156 °C. With `Nc1nnc(-c2ccc3c(c2)CCC3)o1` the figure was 273 to 275 °C; with `O=C(NCc1cn[nH]c1)OCc1ccccc1`, 126 to 128 °C.

`Nc1ccc(I)cc1Br` came in with a melting point of 83 to 85 °C. With `NC(=O)Nc1ccc(F)c(Cl)c1` the figure was 166 to 168 °C; with `Cc1cc(S(N)(=O)=O)sc1C(=O)O`, 249 to 251 °C. The compound `Nc1nnc(SCC(=O)O)s1` showed a melting point of 196 to 198 °C. For the compound `Cc1cc(Br)c(O)c([N+](=O)[O-])c1`, the melting point lay within 84 to 86 °C. Take `Cc1cccc(-c2nnc(CCl)o2)c1`: the melting point lay within 57 to 59 °C. With `Cc1c(C(=O)O)cccc1N1CCNC1=O` the figure was 221 to 223 °C; with `CCOC(=O)c1nn(-c2ccccc2)cc1O`, 86 to 88 °C.

Turning to `O=C(O)C=Cc1nc2ccccc2s1`, the melting point was 222 to 224 °C. With `CN1C(=CC=O)C(C)(C)c2ccccc21` the figure was 93 to 95 °C; with `O=C(O)c1csc(-c2ccc3c(c2)OCO3)n1`, 222 to 224 °C.

`Cc1nn(-c2ccc(F)cc2)nc1C(=O)O`: the melting point lay in the range of 167 to 169 °C. Take `Cc1cc(C(=O)CCl)c(C)n1-c1ccc2c(c1)OCO2`: the melting point was 98 to 110 °C. In turn, `Cn1cc(/C=C/[N+](=O)[O-])cn1` registered a melting point of 127 to 129 °C. `Cc1nnc(CO)n1C` gave a melting point of 155 to 157 °C. With `Cc1ccc(-n2c(C)cc(CC(=O)O)c2C)cc1`, the melting point fell in the range of 50 to 52 °C. With `O=C1CCCN1c1cccc([N+](=O)[O-])c1`, the melting point fell in the range of 107 to 109 °C. Regarding `CC(C)CCNc1c(N)n(Cc2ccccc2)c(=O)[nH]c1=O`, the melting point is 203 to 205 °C. As to `N#Cc1ccc(F)c(CBr)c1`, the melting point is 44 to 46 °C. `O=C(Nc1ccccc1C(=O)O)c1ccccc1I` had a melting point of 204 to 206 °C. On to `CC(=NO)c1ccc(OCC(F)(F)F)cc1`, for which the melting point lay within 127 to 129 °C. With `CNC1CCC(NC(=O)OC(C)(C)C)CC1` (stereo not given) the figure was 72 to 74 °C; with `COC(=O)c1cnc(-c2ccccc2)s1`, 107 to 109 °C; with `NC(=O)c1ccc(OC(F)F)cc1`, 130 to 132 °C.

For `COc1cccc(C(=O)O)c1F`, the melting point fell in the range of 157 to 160 °C. With `O=C(O)c1cnn(-c2nccs2)c1` the figure was 181 to 183 °C. With `CC(C)Cc1ccc(C2(C)NC(=O)NC2=O)cc1` (stereo not given) the figure was 178 to 180 °C. `Cc1[nH]c(C(=O)O)c(C)c1C(=O)O` registered a melting point of 244 to 246 °C. Then `CCCOc1ccc(C(=O)NN)cc1`, with 88 to 90 °C; and `O=C(O)/C=C/c1cnn(Cc2ccccc2)c1`, with 118 to 120 °C; and `O=C(O)CSc1nnc(-c2ccccc2)n1-c1ccc(Cl)cc1`, with 224 to 226 °C. `Cc1c(Br)cccc1CO`: the melting point is 89 to 91 °C. Compound `N#CCc1c[nH]c2ccc(F)cc12` returned a melting point of 54 to 56 °C.

In the case of `NC1CCN(CC(=O)Nc2ccccc2)CC1`, the melting point fell in the range of 75 to 77 °C. For `COc1ccc2cc(C(C)Cl)ccc2c1` (stereo not given), the melting point fell in the range of 82 to 84 °C.

Regarding `CC(C)c1ccc(CCC(N)=O)cc1`, the melting point fell in the range of 142 to 144 °C.

With `O=C(O)c1cnoc1-c1ccccc1`, the melting point lay within 149 to 151 °C. The compound `Cc1nc(N)cc(Cl)n1` showed a melting point of 191 to 193 °C. `COc1ccc(S(=O)(=O)N2CCOCC2)cc1C(=O)O` had a melting point of 180 to 184 °C. With `O=C(O)C1CC(=O)N(c2cccc(Cl)c2)C1` (stereo not given), the melting point lay in the range of 133 to 135 °C.

Consider `CSc1ccccc1NC(=O)C(C)Cl` (stereo not given), for which the melting point was 59 to 61 °C. With `Cc1nnc2ccc(C(=O)O)cn12` the figure was 307 to 309 °C. With `Sc1nnnn1Cc1ccco1` the figure was 78 to 80 °C.

For the compound `CN1C(=O)C(=O)N(CC(=O)O)C1=O`, the melting point was 191 to 193 °C. `O=C(O)CCc1ccnc2ccccc12`: the melting point fell in the range of 197 to 199 °C. Regarding `O=C(O)c1c2c(nc3ccccc13)C(=Cc1ccc(Cl)c(Cl)c1)CC2`, the melting point fell in the range of 184 to 186 °C.

In turn, `NCCC(O)(c1ccccc1)C(F)(F)F` (stereo not given) registered a melting point of 110 to 112 °C. Compound `O=C(O)c1cc(NS(=O)(=O)c2cccs2)ccc1O` showed a melting point of 209 to 211 °C.

In turn, `Cc1ccc(-c2nn(-c3ccccc3)cc2C(=O)O)cc1` returned a melting point of 229 to 231 °C. Then `CC(N)(C(N)=O)c1cccc(Cl)c1` (stereo not given), with 103 to 105 °C; and `O=C(O)C1CCCN1C(=O)c1ccc2ccccc2c1O` (stereo not given), with 197 to 199 °C. Compound `Sc1ccc2c(c1)OCCCO2` yielded a melting point of 41 to 43 °C. Consider `N#Cc1ccc2[nH]cnc2c1`, for which the melting point fell in the range of 203 to 205 °C. Compound `COCc1nnc(NN)s1` showed a melting point of 109 to 111 °C. The compound `O=S(=O)(Cl)c1cccc(-n2cnnn2)c1` returned a melting point of 125 to 127 °C. Compound `CC(=O)NCCCCCC(N)=O` had a melting point of 112 to 114 °C. In turn, `CC(=O)c1cccc(S(=O)(=O)N2CCOCC2)c1` had a melting point of 142 to 144 °C. Then `CC(C)(C)OC(=O)Nc1ccc(C(F)(F)F)cc1C(=O)O`, with 190 to 192 °C; and `O=C(O)/C=C/c1cc(Cl)c2c(c1)OCCCO2`, with 178 to 180 °C; and `O=C(O)c1cc(S(=O)(=O)Cl)c(F)cc1F`, with 129 to 131 °C.
